Source: US8853274B1, “Compositions and methods for targeting glioblastomas cells” (Vanderbilt University, priority 2011, dated 2014)

What was measured:
Format in all cases: cell-based, human
Akt = assay: Immunoblot of Akt phosphorylation in T4302 CD133+ cells; conditions: 200 nM, ±radiation, 2 days
Description: (A) T4302 CD133+ cells were treated with 200 nM RO4929097 (GSI), and irradiated 4 hours later. Cells were cultured for two days and lysed for immunoblotting. (B) T4302 CD133+ cells were treated with 200 nM GSI or FTI±radiation. Cells were lysed 2 days after treatment. (C) T4302 CD133+ cells were treated with 200 nM GSI±FTI for 24 hours, and left under normoxia or in 2% O2 for 16 hours before being lysed for immunoblotting.

Ras = assay: Active Ras pull-down assay in T4302 CD133+ cells; conditions: 200 nM; after radiation exposure
Description: (A) T4302 CD133+ cells were infected with NICD2-lentivirus and treated with 2 μM DAPT±3 Gy radiation. Cells were collected at 24 or 48 hours after treatment. Protein levels of phospho-s473 Akt, total Akt and actin were blotted. (B) Control CD133+ cells or NICD2-expressing cells were pre-treated with 10 μM PI3K inhibitor (LY294002), or 50 μM Akt inhibitor (SH-6) for 4 hours prior to radiation. Relative caspase 3/7 activity was determined at 48 hours after radiation as described in FIG. 3C. (C) T4302 CD133+ cells were treated with 200 nM RO4929097 (GSI)±3 Gy. Active Ras levels were determined by a Ras Pull Down Assay kit using a pan-Ras antibody (Pierce). (D, E) T4302 cells were infected with H-Ras V12-lentivirus. Cells were treated with 200 nM RO4929097 (GSI)±3 Gy. Growth of cells was determined at day 5 after treatment (CellTiter-Glo assay, Promega). Relative caspase 3/7 activity was determined at 48 hours after treatment. […] Equal amounts of protein were resolved by SDS-PAGE and analyzed by immunoblotting with indicated antibodies. *: p<0.05 by Student's t-test.
Potential mechanisms that mediate Notch-dependent Akt activation were examined next. […] Using an active Ras pull-down assay kit (Pierce), the activation status of Ras signaling can be determined as the amount of Ras-GTP co-purified with a GST-tagged Ras-binding domain of c-Raf. […]

T4302 CD133+ cells = assay: Cell growth / viability on day 5 (CellTiter-Glo); conditions: 100 nM; with or without 3 Gy radiation
Description: (A, B) T4302 CD133+ cells were treated with 100 nM RO4929097 (GSI) and/or 100 nM tipifarnib (FTI) for 4 hours prior to 3 Gy radiation. (A) Cell growth on day 5 and (B) caspase 3/7 activation on day 3 were determined as described in FIG. 4. #: p<0.001 by one-way ANOVA, combo vs. single agents. (C) The effects of GSIs and FTI against growth of T4302 CD133− cells were determined as described in panel A. (D, E) T4302 CD133+ cells were treated with GSI, FTI, or a 1:1 mixture at different concentrations (ranging from 3000 nM to ˜0.5 nM, 1:3 dilution)±3 Gy radiation. Cell viability was determined at 5 days after treatment in comparison to vehicle-treated groups. […] (F) T4302 CD 133+ cells were treated by GSI±FTI with a 2-fold dilution. Neurospheres were countered on day 10, and normalized to the vehicle-treated group.
GSC sensitivity to drug(s) was primarily measured as inhibition of cell viability (survival). Cells were treated with drugs alone or in combination±3-Gy radiation at indicated concentrations. Cell viability is determined by CellTiter-Glo kit (Promega) after 5-day incubation. IC50 values are calculated by the GraphPad Prism5 software.

[1] = test system: T4302 CD133+ cells expressing RhoB shRNA; assay: Growth, caspase and Akt phosphorylation in RhoB shRNA cells; conditions: 100 nM
Description: (A) T4302 CD133+ cells were infected with lentivirus directing expression of a non-targeting shRNA or two RhoB specific shRNA. Cells were lysed for immunoblotting 3 days after infection. (B, C) Two days after infection, cells were selected with puromycin for two days, and plated in 96-well plates for growth curve assays. Cell growth was measured on days 1, 3 and 5 after plating, and normalized to the corresponding readout on day 1. (D-F) After lentiviral infection and puromycin selection as described above, T4302 CD133+ cells were treated with 100 nM GSI, FTI, ±3 Gy radiation and plated for subsequent experiments. (D) Relative growth on day 5, (E) caspase activation on day 3, and (F) protein levels on day 1 after treatment were determined as described in FIG. 4. *: p<0.001 by Student's t-test in comparison to the corresponding control groups.

## CC(C)(C(=O)NCC(F)(F)C(F)(F)F)C(=O)N[C@@H]1C(=O)Nc2ccccc2-c2ccccc21 [RO4929097]
Akt
  Akt activity (phosphorylation at serine 473 and threonine 308): stronger Akt inhibition in irradiated cells than in unirradiated cells
Ras
  active Ras levels: decreased active Ras levels
T4302 CD133+ cells
  degree of growth inhibition after 5-day treatment, in words: weaker growth inhibition
[1]; day 1
  Akt phosphorylation in RhoB knockdown cells compared with control cells: greater reduction of Akt phosphorylation
[1]; ±3 Gy
  sensitivity of RhoB shRNA cells (growth day 5, caspase day 3): highly sensitive
